This is an account of results in patent US20150183737A1, “COMPOSITIONS AND METHODS FOR SUBSTRATE-SELECTIVE INHIBITION OF ENDOCANNABINOID OXYGENATION” (Vanderbilt University, priority 2012, published 2015).

For one series, the target named is T1, purified murine COX-2 (Mus musculus, UniProt Q05769).
T1 sequence (Q05769 18-604): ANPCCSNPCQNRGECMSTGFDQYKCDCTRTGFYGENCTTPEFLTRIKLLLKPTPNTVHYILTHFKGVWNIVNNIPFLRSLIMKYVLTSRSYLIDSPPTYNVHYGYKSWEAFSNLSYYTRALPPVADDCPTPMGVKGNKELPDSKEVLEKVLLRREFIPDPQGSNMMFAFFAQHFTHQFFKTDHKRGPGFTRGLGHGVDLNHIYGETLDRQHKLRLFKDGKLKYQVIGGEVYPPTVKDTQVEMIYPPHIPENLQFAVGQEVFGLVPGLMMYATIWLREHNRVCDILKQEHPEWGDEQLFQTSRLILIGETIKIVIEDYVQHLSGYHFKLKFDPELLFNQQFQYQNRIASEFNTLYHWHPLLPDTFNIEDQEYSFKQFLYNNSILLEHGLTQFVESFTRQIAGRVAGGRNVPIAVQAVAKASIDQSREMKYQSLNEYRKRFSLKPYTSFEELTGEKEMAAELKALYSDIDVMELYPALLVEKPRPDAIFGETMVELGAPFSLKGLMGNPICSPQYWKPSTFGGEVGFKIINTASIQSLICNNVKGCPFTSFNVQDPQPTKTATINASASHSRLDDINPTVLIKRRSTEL
Nature of the series: Inhibition of mCOX-2 dependent oxygenation of 2-AG and AA by profens in vitro. The format is biochemical. Further details: made in house; host or cells: insect cells. The conditions noted are these: achiral profens; for inhibition at 10 µM: at 10 μM inhibitor; for IC50: murine COX-2 40 nM, 3 min preincubation, 37° C., 30 s, mean ± SD, read-out: 2-AG IC50. The procedure:
Desired concentrations of inhibitor in DMSO or blank (DMSO) were incubated with mCOX-2 (40 nM) for 3 minutes in 100 mM Tris-HCl with 0.5 mM phenol, pH 8.0 at 37° C. After pre-incubation of enzyme and inhibitor, 5 μM of AA or 2-AG was added at 37° C. Thirty seconds later, the reaction was quenched with 200 μL of ice-cold ethyl acetate containing 0.5% acetic acid (v/v) and 1 μM PGE2-d4 and PGE2-G-d5. The solution was then vortexed and the aqueous layer frozen. The organic layer was removed and evaporated to near-dryness under nitrogen. The samples were reconstituted in 1:1 MeOH:H2O and chromatographed using a LUNA® C18(2) column (50 2 mm, 3 μm; Phenomenex, Torrance, Calif., United States of America). […] Analyte peak areas were normalized to the appropriate internal standard to determine the amount of product formation, and inhibition was determined by normalization to a DMSO control.

The target in series [1] is T2, COX-2 in RAW 264.7 macrophages (Mus musculus, UniProt Q05769).
T2 construct: endogenous in cells; host or cells: RAW 264.7 macrophages stimulated with LPS (and GM-CSF / interferon γ where described)
T2 sequence (Q05769 18-604): T1 sequence (Q05769 18-604)
Briefly: RAW cells assay: oxygenation of 2-AG and AA. The format is cell-based. The settings on record: for inhibition at 25 µM: at 25 μM compound; for IC50: conversion of 2-AG to PGE2-G/PGD2-G. On the procedure:
Two hours after stimulation, varying doses of inhibitor were added to the cell media and 6 hr after stimulation the media were collected and analyzed by LC-MS-MS for prostaglandin levels.
The cells were then stimulated overnight with 20 ng/ml of granulocyte-macrophage colony-stimulating factor. The media was replaced in the morning with DMEM with GLUTAMAX® and the cells were stimulated with 100 ng/ml lipopolysaccharide and 20 units/ml interferon γ. Two hours after stimulation varying doses of inhibitor were added to the cell media and 6 hours after stimulation the media was collected and extracted in acidified ethyl acetate spiked with deuterated internal standards. The organic layer was dried down under a stream of nitrogen gas and reconstituted in 1:1 water:methanol and analyzed by LC-MS/MS for prostaglandin levels using the same instrumentation, column, solvents and conditions as described for the in vitro assay above.

Series [2] is described as follows: In vivo mouse assay: plasma levels. Further details: species or system C57BL/6 mice.
A short description of series [3]: Chiral HPLC of (R)-profen-treated DRG extracts (racemization). The format is in vitro ADME, mouse. The source says:
A Daicel chiralpak chiral column was used in conjunction with a normal-phase HPLC gradient to separate the profen enantiomers.

Another series addresses T3, FAAH (Homo sapiens, UniProt O00519).
T3 sequence (O00519 1-579): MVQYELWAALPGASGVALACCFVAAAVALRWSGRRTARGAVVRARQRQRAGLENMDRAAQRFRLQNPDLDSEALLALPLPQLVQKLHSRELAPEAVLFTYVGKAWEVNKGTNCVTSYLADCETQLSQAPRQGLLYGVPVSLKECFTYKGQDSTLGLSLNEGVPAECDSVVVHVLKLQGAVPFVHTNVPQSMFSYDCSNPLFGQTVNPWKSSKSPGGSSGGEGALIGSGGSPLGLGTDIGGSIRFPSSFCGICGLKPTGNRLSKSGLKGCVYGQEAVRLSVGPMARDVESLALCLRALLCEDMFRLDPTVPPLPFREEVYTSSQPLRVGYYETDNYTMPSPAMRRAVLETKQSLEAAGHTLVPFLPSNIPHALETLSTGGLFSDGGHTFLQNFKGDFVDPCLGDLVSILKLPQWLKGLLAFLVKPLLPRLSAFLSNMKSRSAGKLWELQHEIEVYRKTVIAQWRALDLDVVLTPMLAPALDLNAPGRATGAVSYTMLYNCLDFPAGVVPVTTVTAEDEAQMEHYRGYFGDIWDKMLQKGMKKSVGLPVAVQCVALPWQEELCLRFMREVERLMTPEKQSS
The settings on record: in vitro; Bishay et al., 2010; cited from earlier work.

The subject of series [4] is brain eCB, AA and PG levels. Nature of the series: Brain eCB, NAE, MAG, AA and PG levels after i.p. injection. The format is in vivo, mice. The settings on record: 10 mg/kg i.p., 2 hours. On the procedure: 5-7 week old male ICR mice were used for all experiments with the exception of knockout animals (Harlan, Indianapolis, Ind., United States of America). Mice were housed 5 per […]. All behavioral tests were conducted during the light cycle between 0900 and 1700. KO and WT littermate controls for FAAH^(−/−) and COX-2^(−/−) mice were derived from heterozygote breeding pairs, bred and genotyped as described in Uddin et al., 2011. CB1^(−/−) mice were bred from homozygote breeding pairs and genotyped as described in Pan et al., 2008. Mice were group-housed on a 12:12 light-dark cycle (lights on at 06:00), with food and water available ad libitum. All animal studies were approved by the Vanderbilt Institutional Animal Care and Use Committee and conducted in accordance with the Guide for the Care and Use of Laboratory Animals of the United States National Institutes of Health.
(§1) Mice were sacrificed by cervical dislocation and decapitation. The brain, lungs, liver, stomach, small intestines, and kidneys were then rapidly removed and frozen on a metal block in dry ice. The tissue was then placed in a tube and stored at −80° C. until extraction, usually one day after harvesting. For PG and eCB analysis, lipid extraction from tissue was carried out as described in Patel et al., 2009.
(§2) Analytes were quantified using LC-MS/MS on a Quantum triple-quadrupole mass spectrometer in positive-ion mode using selected reaction monitoring. Detection of eicosanoids was performed as described in Kingsley & Marnett, 2007. For fatty acid analysis the mobile phases used were 80 μM AgOAc with 0.1% (v/v) acetic acid in H2O (solvent A) and 120 μM AgOAc with 0.1% (v/v) acetic acid in MeOH (solvent B). The analytes were eluted using a gradient from 20% A to 99% B over 5 minutes. The transitions used were m/z 300→282 for PEA, m/z 328→310 for SEA, m/z 434→416 for OEA, m/z 456→438 for AEA, m/z 464→446 for AEA-d8, m/z 331→257 for 2-PG, m/z 359→285 for 2-SG, m/z 463→389 for 2-OG, m/z 485→411 for 2-AG, m/z 493→419 for 2-AG-d8, m/z 519→409 for AA, and m/z 527→417 for AA-d8. Peak areas for the analytes were normalized to the appropriate internal standard and then normalized to tissue mass for in vivo samples.

For series [5], the system named is ICR mice. Briefly: Elevated plus-maze (EPM). The class given is in vivo. The settings on record: 10 mg/kg.
In series [6] the test system is peripheral tissue eCB, NAE, MAG and PG levels. Nature of the series: Peripheral tissue NAE, MAG and PG levels after i.p. injection. The format is in vivo, mice. The conditions noted are these: liver. The procedure:
as §1
as §2, with “samples. […]” for “samples.”

Series [7] has as its system ICR mice. Briefly: Novel open field test. The format is in vivo. The settings on record: 10 mg/kg. The procedure: Animals were tested for open-field activity in a novel environment one hour after i.p. injection of compound as described in Sumislawski et al., 2011. Briefly, one-hour sessions were performed using automated experimental chambers (27.9 27.9 cm; MEDOFA-510; MED Associates, Ga., Vermont, United States of America) under constant illumination within a sound-attenuated room. Analysis of open field activity was performed using Activity Monitor v5.10 (MED Associates).

Series [8] deals with ICR mice. Nature of the series: Light-dark box. The class given is in vivo. The settings on record: 10 mg/kg.
For series [9], the system named is ICR mice. Nature of the series: Rectal temperature, catalepsy and hot plate antinociception. The conditions noted are these: 10 mg/kg i.p.
[10] abbreviates: AA 5 μM, read-out: AA % Inhibition.

Entries after “also recorded” stand apart in the source; their conditions may differ. Where two headings read alike, the source gives them in different places.

Broadly, the inhibition is how much of the control response was suppressed. Regarding `O=C(O)Cc1ccc(-c2ccccc2)c(F)c1` [Compound 3a, 2-(2-fluoro-[1,1′-biphenyl]-4-yl)acetic acid], on purified murine COX-2 (setting [10]), the inhibition at 10 µM came out at 7%. Further, the inhibition at 5 µM in [1] (RAW264.7, at 5 μM compound) turned out to be 60%. For the same compound, in series [2] (10 mg/kg i.p. at 0, 8, 24, 32, 48 and 56 hr, sixteen hr after the last injection), the Average plasma concentration result is “not detected”. In addition, in [2] (male, C57BL/6, mouse, plasma, intraperitoneal, 10 mg/kg, read-out: Half-life (t1/2) in mouse plasma), the half-life lay within 120 to 180 min. Besides, the concentration at 72 h is 68 µM in series [2] (single 10 mg/kg i.p. injection, 1 hr); 50 µM in [2] (single 10 mg/kg i.p. injection, 2 hr); 6 µM in series [2] (single 10 mg/kg i.p. injection, 4 hr).

A word on the IC50: it is the concentration that gives 50% inhibition. Take `CC(C)(C(=O)O)c1ccc(-c2ccccc2)c(F)c1` [Compound 4a, 2-(2-fluoro-[1,1′-biphenyl]-4-yl)-2-methylpropanoic acid]: the inhibition at 10 µM on purified murine COX-2 (setting [10]) worked out at 5%. Besides, the IC50 at purified murine COX-2 (2-AG 5 μM) was found to be 1100 nM; in series [1], 5.2 µM. In series [1] (RAW264.7), this compound came in with an inhibition at 25 µM of 40%.

Take `O=C(O)C1(c2ccc(-c3ccccc3)c(F)c2)CC1` [Compound 5a, 1-(2-fluoro-[1,1′-biphenyl]-4-yl)cyclopropanecarboxylic acid]: the inhibition at 10 µM at purified murine COX-2 (setting [10]) was found to be 0%; at purified murine COX-2 (read-out: Maximum inhibition of 2-AG oxygenation, 2-AG 5 μM), 87%. Moreover, the IC50 is 2300 nM on purified murine COX-2 (2-AG 5 μM) and 10.2 µM in series [1]. The compound further showed an inhibition at 25 µM in [1] (RAW264.7) of 55%.

Turning to `C[C@@H](C(=O)O)c1ccc(-c2ccccc2)c(F)c1` [Compound 7a, (R)-flurbiprofen], in series [3], the “Conversion to the (S)-enantiomer” value is reported as “did not occur”. For the same compound, at FAAH, the IC50 is more than 1 mM. The concentration at 72 h in series [2] (male, C57BL/6, mouse, plasma, intraperitoneal, 10 mg/kg i.p. at 0, 8, 24, 32, 48 and 56 hr, sixteen hr after the last injection) turned out to be 20 µM.

Turning to `CC(C)Cc1ccc([C@@H](C)C(=O)O)cc1` [Compound 7c, (R)-ibuprofen], the “Conversion to the (S)-enantiomer” value in series [3] (DRG extracts, chiral HPLC) is reported as “did not occur”.

With `O=C(Nc1cccnc1)N1CCC(Cc2cccc(Oc3ccc(C(F)(F)F)cn3)c2)CC1` [PF-3845, N-3-pyridinyl-4-[[3-[[5-(trifluoromethyl)-2-pyridinyl]oxy]phenyl]methyl]-1-piperidinecarboxamide, reference compound], the “Brain levels of NAEs other than AEA” value in [4] is “robustly increased”. The “Brain AEA levels” value in series [4] (vs vehicle) is recorded as “robustly increased”. Moreover, in the series with ICR mice [5], the Open arm latency result was “significantly reduced; also recorded: decreased” and the “Other EPM parameters (open arm time, total distance traveled)” value was “did not affect; also recorded: did not increase”. Further, the “Liver NAE levels” value in series [6] is listed as “robust increases”. Besides, the “Center distance travelled and center time in the open-field arena” value in the series with ICR mice [7] is recorded as “increased”. In addition, in the series with ICR mice [8], the Light-zone time entry is listed as “significantly increased”, the “Number of light-zone entries” value was “significantly increased” and the “Overall locomotor activity in the light-dark box” value was “without significantly affecting”.

In the case of `Cc1c(C(=O)c2cccc3ccccc23)c2cccc3c2n1[C@H](CN1CCOCC1)CO3` [Win-55212-2], in the series with ICR mice [9], the “Antinociception in the hot plate test” value was “induced”, the Catalepsy result was “induced” and the “Hypothermia (rectal temperature)” value is on record as “induced”.
